Experimental data from article PMC9424909, “Rutin alleviated acrolein-induced cytotoxicity in Caco-2 and GES-1 cells by forming a cyclic hemiacetal product” (Frontiers in Nutrition, 2022).
Several values for one entry are separate records, joined by “and”; a condition that tells them apart may be missing. Equal values may be shown once. Read-outs that look alike come from different tables or passages of the source.

Tests used:
[1] = incubating with equal concentrations of ACR for 12 h at 37°C ref 25; cited from earlier work
[2] = in vitro simulated oral, gastric and intestinal digestion of RAC (HPLC); format: in vitro ADME
Description: The simulated oral, gastric, and intestinal digestion experiments of RAC were carried out according to Mamone et al. ([39]) with minor adjustments. One milliliter of RAC (1 mg/mL) was mixed with 4 mL SSF and stirred at 170 rpm for 2 min in lightproof condition to mimic the oral phase digestion. Based on the oral stage, 10 mL of SGF was added and reacted for another 2 h under the same condition to imitate the gastric phase digestion. To investigate the intestinal phase digestion, 20 mL of SIF was further added, and the mixture was stirred for another 2 h after simulated gastric digestion. For each stage, the same volume of deionized water was used in place of the corresponding digestive fluid as the control. At the end of each stage, 0.8 mL of the mixture was withdrawn and diluted with MeOH to 1.0 mL for HPLC analysis.
The standard curve of RAC was prepared as follows: one milligram of RAC was dissolved with MeOH to a final concentration of 1 mg/mL. The above solution was further used to prepare a series of RAC concentrations at 0.02, 0.04, 0.08, 0.2, and 1.0 mg/mL, respectively. The HPLC conditions for the determination of the content of RAC in the digestion mixture and the preparation of the standard curve of RAC were the same as those for the analysis of RAC, except that the detection wavelength was at 358 nm.

[3] = cell survival, CCK-8 assay; format: cell-based, human; conditions: human; for viability at 24 h, 140 µM: incubation 24 h, read-out: cell viability (viable cell number); for IC50 at 48 h: read-out: IC50 (cytotoxicity)
Description: (§1) The Caco-2 cell line and GES-1 cell line were obtained from iCell Bioscience (Shanghai, China). As described by Chai et al. ([40]) with a bit modification, the Caco-2 cells were cultured within a medium composed of DMEM supplemented with 1% (v/v) NEAA, 10% (v/v) FBS, and penicillin and streptomycin (100 U/mL). GES-1 cells were cultivated according to Xu et al. ([41]) with slight modifications as follows: DMEM medium including 1% (v/v) NEAA, 10% (v/v) FBS, and penicillin and streptomycin (100 U/mL). Cells were all maintained in a humidified incubator containing 5% CO2 and 95% air at 37°C.
(§2) The effects of ACR and RAC on cell survival (both Caco-2 and GES-1 cells) were measured by the CCK-8 assay ([41]). Briefly, cells (1 × 10^4 cells/well) were seeded into a 96-well plate and cultivated overnight. […] After cells were rinsed twice with PBS and resuspended in 100 μL of DMEM supplemented with 10% FBS, 10 μL of CCK-8 solution was added into each well and the plate was maintained for 1 h in the incubator. The plate was read at 450 nm on a microplate reader (BioTek, Epoch 2, USA), and all experiments were performed thrice. Cell viability was expressed as a percentage of the control group as shown below:
(§3) Cell viability (%) = A sample/A control × 100%
(§4) Where A sample was the absorbance (Abs) of the cells incubated with different concentrations of sample solutions, and A control was the Abs of the cells incubated without sample solution.

Caco-2 cells [4] = assay: cell survival, CCK-8 assay; format: cell-based, human; conditions: Caco-2
Description: as §1, §2, §3, §4

GES-1 cells [5] = assay: cell survival, CCK-8 assay; format: cell-based, human; conditions: GES-1
Description: as §1, §2, §3, §4

Caco-2 cells [6] = assay: apoptosis assay, Annexin-V FITC/PI flow cytometry; format: cell-based, human; conditions: 24 h
Description: as §1
(§5) Cell apoptosis assay was conducted in refer to Abas et al. ([42]) with modifications. In short, cells at a density of 1 × 10^4 cells/well were seeded in 96-well plates and incubated overnight, followed by exposure to different concentrations of ACR and RAC for another 24 h. After that, cells were rinsed twice with PBS, resuspended in 200 μL of Annexin-binding buffer, and finally stained with Annexin-V FITC and PI (5 μL each) for 10 min at 37°C in darkness. After adding 400 μL of Annexin-binding buffer, the signal intensity was measured using a FACSCalibur (Becton Dickinson, CA, USA) flow cytometry within 1 h, and data was analyzed with FlowJo software (Ashland, OR, USA).

GES-1 cells [7] = assay: apoptosis assay, Annexin-V FITC/PI flow cytometry; format: cell-based, human; conditions: GES-1, 60 μM
Description: as §1, §5

Caco-2 cells [8] = assay: JC-1 staining, mitochondrial membrane potential (MMP); format: cell-based, human; conditions: 24 h
Description: as §1
(§6) After incubation with different concentrations of samples, the changes of MMP in Caco-2 and GES-1 cells were measured in accordance with Liu et al., with slight modifications ([43]). In brief, cells (1 × 10^4 cells/well) were exposed to different concentrations of ACR and RAC for 24 h, respectively. Then 500 μL of JC-1 staining solution was added into each well and the plate was further incubated at 37°C for 15 min. Cells were then rinsed twice with 1 mL of staining buffer and resuspended with 500 μL of staining buffer prior to MMP determination in the flow cytometry.

GES-1 cells [9] = assay: as above; format: cell-based, human; conditions: 24 h
Description: as §1, §6

[10] = parameters: method as in PMID 19743801; conditions: simulated physiological conditions ref 21; cited from earlier work

COc1ccc([C@@H]2CC(=O)c3c(O)cc(O)cc3O2)cc1O [hesperetin]
ACR eliminated [1]: 94.87%

CC1OC(OCC2OC(Oc3c(-c4ccc(O)c(O)c4)oc4c5c(cc(O)c4c3=O)OC(O)CC5)C(O)C(O)C2O)C(O)C(O)C1O (racemic) [RAC]
The amount of RAC ([2]; Initial): 2.99 ± 0.01 mg
Decrease of RAC ([2]; SGF 30 min (gastric)): 16.39%
The amount of RAC ([2]; SGF 30 min (gastric)): 2.50 ± 0.06 mg and 2.50 ± 0.06 a mg
Decrease of RAC ([2]; SGF 60 min (gastric)): 16.05%
The amount of RAC ([2]; SGF 60 min (gastric)): 2.51 ± 0.04 a mg
The content of RAC ([2]; SGF 60 min (gastric)): 0.167 ± 0.0028 mg/mL
Decrease of RAC ([2]; SGF 90 min (gastric)): 21.07%
The amount of RAC ([2]; SGF 90 min (gastric)): 2.36 ± 0.04 b mg
The content of RAC ([2]; SGF 90 min (gastric)): 0.157 ± 0.0029 mg/mL
Decrease of RAC ([2]; SGF 120 min (gastric)): 24.41%
The amount of RAC ([2]; SGF 120 min (gastric)): 2.26 ± 0.03 b mg
Decrease of RAC ([2]; SIF 30 min (intestinal)): 13.38%
The amount of RAC ([2]; SIF 30 min (intestinal)): 2.59 ± 0.01 a mg
The content of RAC ([2]; SIF 30 min (intestinal)): 0.074 ± 0.0002 mg/mL
Decrease of RAC ([2]; SIF 60 min (intestinal)): 14.72%
The amount of RAC ([2]; SIF 60 min (intestinal)): 2.55 ± 0.01 b mg
The content of RAC ([2]; SIF 60 min (intestinal)): 0.073 ± 0.0002 mg/mL
Decrease of RAC ([2]; SIF 90 min (intestinal)): 14.38%
The amount of RAC ([2]; SIF 90 min (intestinal)): 2.56 ± 0.01 b mg
The content of RAC ([2]; SIF 90 min (intestinal)): 0.073 ± 0.0002 mg/mL
Decrease of RAC ([2]; SIF 120 min (intestinal)): 16.39%
The amount of RAC ([2]; SIF 120 min (intestinal)): 2.50 ± 0.01 mg and 2.50 ± 0.01 c mg
The content of RAC ([2]; SIF 120 min (intestinal)): 0.072 ± 0.0004 mg/mL
Decrease of RAC ([2]; SSF 2 min (oral)): 0.33%
The amount of RAC ([2]; SSF 2 min (oral)): 2.98 ± 0.01 mg
The content of RAC ([2]; SSF 2 min (oral)): 0.595 ± 0.0018 mg/mL
viability at 24 h, 140 µM ([3]; Caco-2 cells, Caco-2, 140 μM): > 75%
IC50 at 48 h ([3]; Caco-2 cells, Caco-2, CCK-8): > 140 µM
viability at 24 h, 140 µM ([3]; GES-1 cells, GES-1, 140 μM): > 75%
IC50 at 48 h ([3]; GES-1 cells, GES-1, CCK-8): > 140 µM
viability of RAC-treated cells, fold higher than ACR-treated cells (Caco-2 cells [4]): 10 fold
viability of RAC-treated cells, fold higher than ACR-treated cells (GES-1 cells [5]): 6.5 fold
apoptotic cells (Caco-2 cells [6]; Caco-2, 20 μM): 8.3%
apoptotic cells (Caco-2 cells [6]; Caco-2, 60 μM): 10.81%
apoptotic rate, fold below the 60 μM ACR-treated group (GES-1 cells [7]): 5.4 fold
apoptotic rate (GES-1 cells [7]; 24 h): 12.59%
ratio of red/green fluorescence intensity (Caco-2 cells [8]; Caco-2, 20 μM): 17.64 ± 0.69
ratio of red/green fluorescence intensity (Caco-2 cells [8]; Caco-2, 40 μM): 15.16 ± 0.59
ratio of red/green fluorescence intensity (Caco-2 cells [8]; Caco-2, 60 μM): 9.47 and 9.47 ± 0.37
ratio of red/green fluorescence intensity (GES-1 cells [9]; GES-1, 20 μM): 13.32 ± 0.43
ratio of red/green fluorescence intensity (GES-1 cells [9]; GES-1, 40 μM): 10.59 ± 0.33
ratio of red/green fluorescence intensity (GES-1 cells [9]; GES-1, 60 μM): 6.72 and 6.72 ± 0.30

O=C(CCc1ccc(O)cc1)c1c(O)cc(O)cc1O [phloretin]
ACR quenched [10]: more than 99%
